pIC50: −log10 of the molar value.
How the values were obtained:
Format in all cases: functional, cell-based
[1] = tested on: IMR-5; test: cells; conditions: Homo sapiens;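 note: growth inhibition of human IMR-5 cells, read out with a cell viability assay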
Description: SANGER: Inhibition of human IMR-5 cell growth in a cell viability assay.

[2] = tested on: MRK-nu-1; test: cells; conditions: Homo sapiens;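 note: cell viability assay measuring growth suppression of human MRK-nu-1 cells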
Description: SANGER: Inhibition of human MRK-nu-1 cell growth in a cell viability assay.

[3] = tested on: NB14; test: cells; conditions: Homo sapiens;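 note: growth inhibition of NB14 cells measured with a cell viability assay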
Description: SANGER: Inhibition of human NB14 cell growth in a cell viability assay.

[4] = tested on: REH; test: cells; conditions: Homo sapiens;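 note: growth inhibition of REH cells determined with a cell viability read-out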
Description: SANGER: Inhibition of human REH cell growth in a cell viability assay.

[5] = tested on: PF-382; test: cells; conditions: Homo sapiens
Description: SANGER: Inhibition of human PF-382 cell growth in a cell viability assay.

[6] = tested on: LB647-SCLC; test: cells; conditions: Homo sapiens;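 note: cell growth inhibition, read out by a viability assay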
Description: SANGER: Inhibition of human LB647-SCLC cell growth in a cell viability assay.

[7] = tested on: NCI-H2171; test: cells; conditions: Homo sapiens;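 note: growth inhibition of human NCI-H2171 cells, read out by a cell viability assay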
Description: SANGER: Inhibition of human NCI-H2171 cell growth in a cell viability assay.

[8] = tested on: NCI-H1436; test: cells; conditions: Homo sapiens;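 note: growth suppression of human NCI-H1436 cells, determined with a cell viability readout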
Description: SANGER: Inhibition of human NCI-H1436 cell growth in a cell viability assay.

[9] = tested on: RL; test: cells; conditions: Homo sapiens
Description: SANGER: Inhibition of human RL cell growth in a cell viability assay.

[10] = tested on: Raji; test: cells; conditions: Homo sapiens;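 note: cell viability assay measuring inhibition of Raji cell growth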
Description: SANGER: Inhibition of human Raji cell growth in a cell viability assay.

[11] = tested on: HCC1599; test: cells; conditions: Homo sapiens;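 note: growth inhibition of HCC1599 cells, read out in a cell viability assay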
Description: SANGER: Inhibition of human HCC1599 cell growth in a cell viability assay.

[12] = tested on: JIYOYE; test: cells; conditions: Homo sapiens
Description: SANGER: Inhibition of human JiyoyeP-2003 cell growth in a cell viability assay.

[13] = tested on: NCI-H1522; test: cells; conditions: Homo sapiens;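 note: growth inhibition of NCI-H1522 cells, read out with a cell viability assay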
Description: SANGER: Inhibition of human NCI-H1522 cell growth in a cell viability assay.

[14] = tested on: HCC2157; test: cells; conditions: Homo sapiens;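 note: growth inhibition of the cancer cell line, read out as cell viability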
Description: SANGER: Inhibition of human HCC2157 cell growth in a cell viability assay.

[15] = tested on: TE-15; test: cells; conditions: Homo sapiens;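 note: cell viability readout of growth inhibition in TE-15 cells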
Description: SANGER: Inhibition of human TE-15 cell growth in a cell viability assay.

[16] = tested on: BOKU; test: cells; conditions: Homo sapiens;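 note: growth inhibition of the human BOKU cell line, read out by a cell viability assay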
Description: SANGER: Inhibition of human BOKU cell growth in a cell viability assay.

[17] = tested on: NCI-H1694; test: cells; conditions: Homo sapiens;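 note: cell viability assay measuring inhibition of growth in human NCI-H1694 cells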
Description: SANGER: Inhibition of human NCI-H1694 cell growth in a cell viability assay.

[18] = tested on: LC-1F; test: cells; conditions: Homo sapiens;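 note: growth inhibition of human LC-1F cells, read out with a cell viability assay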
Description: SANGER: Inhibition of human LC-1F cell growth in a cell viability assay.

[19] = tested on: YT; test: cells; conditions: Homo sapiens
Description: SANGER: Inhibition of human YT cell growth in a cell viability assay.

[20] = tested on: CA46; test: cells; conditions: Homo sapiens;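 note: growth inhibition of human CA46 cells, read out by a cell viability assay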
Description: SANGER: Inhibition of human CA46 cell growth in a cell viability assay.

[21] = tested on: BL-41; test: cells; conditions: Homo sapiens;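 note: growth inhibition of human BL-41 cells, read out with a cell viability assay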
Description: SANGER: Inhibition of human BL-41 cell growth in a cell viability assay.

[22] = tested on: BC1 cell line; test: SANGER: Inhibition of human BC-1 cell growth in a cell viability assay.
[23] = tested on: HLE; test: cells; conditions: Homo sapiens;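 note: growth inhibition of human HLE cells, read out by a cell viability assay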
Description: SANGER: Inhibition of human HLE cell growth in a cell viability assay.

[24] = tested on: HSC-2; test: cells; conditions: Homo sapiens;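 note: growth inhibition of human HSC-2 cells, read out by a cell viability assay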
Description: SANGER: Inhibition of human HSC-2 cell growth in a cell viability assay.

[25] = tested on: Hs-578T; test: cells; conditions: Homo sapiens
Description: SANGER: Inhibition of human Hs-578-T cell growth in a cell viability assay.

[26] = tested on: HSC-4; test: cells; conditions: Homo sapiens;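 note: growth inhibition of human HSC-4 cells, read out with a cell viability assay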
Description: SANGER: Inhibition of human HSC-4 cell growth in a cell viability assay.

[27] = tested on: ESS-1; test: cells; conditions: Homo sapiens;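 note: growth inhibition of human ESS-1 cells, read out by a cell viability assay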
Description: SANGER: Inhibition of human ESS-1 cell growth in a cell viability assay.

[28] = tested on: HMV-2 cell line; test: cells; conditions: Homo sapiens;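 note: growth inhibition of HMV-II cells, read out with a cell viability assay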
Description: SANGER: Inhibition of human HMV-II cell growth in a cell viability assay.

[29] = tested on: PFSK-1; test: cells; conditions: Homo sapiens;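 note: cell viability assay measuring how strongly compounds suppress growth of human PFSK-1 cells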
Description: SANGER: Inhibition of human PFSK-1 cell growth in a cell viability assay.

[30] = tested on: NCI-H2405; test: cells; conditions: Homo sapiens;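 note: growth inhibition of the human cell line, read out with a cell viability assay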
Description: SANGER: Inhibition of human NCI-H2405 cell growth in a cell viability assay.

[31] = tested on: NCI-H2228; test: cells; conditions: Homo sapiens;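 note: growth inhibition of human NCI-H2228 cells, read out by a cell viability assay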
Description: SANGER: Inhibition of human NCI-H2228 cell growth in a cell viability assay.

[32] = tested on: 786-0; test: cells; conditions: Homo sapiens
Description: SANGER: Inhibition of human 786-0 cell growth in a cell viability assay.

[33] = tested on: HCC38; test: cells; conditions: Homo sapiens;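 note: cell viability assay on the human HCC38 cell line, with IC50 marking the concentration that inhibits cell growth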
Description: SANGER: Inhibition of human HCC38 cell growth in a cell viability assay.

[34] = tested on: DMS-273; test: cells; conditions: Homo sapiens
Description: SANGER: Inhibition of human DMS-273 cell growth in a cell viability assay.

[35] = tested on: SK-MEL-30; test: cells; conditions: Homo sapiens;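 note: growth inhibition of SK-MEL-30 cells, determined with a cell viability assay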
Description: SANGER: Inhibition of human SK-MEL-30 cell growth in a cell viability assay.

[36] = tested on: SW1990; test: cells; conditions: Homo sapiens
Description: SANGER: Inhibition of human SW1990 cell growth in a cell viability assay.

[37] = tested on: EGI-1; test: cells; conditions: Homo sapiens;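 note: cell viability readout used to gauge growth inhibition of EGI-1 cells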
Description: SANGER: Inhibition of human EGI-1 cell growth in a cell viability assay.

[38] = tested on: SW48; test: cells; conditions: Homo sapiens;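 note: growth inhibition of SW48 cells, read out with a cell viability assay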
Description: SANGER: Inhibition of human SW48 cell growth in a cell viability assay.

[39] = tested on: NCI-H28; test: cells; conditions: Homo sapiens;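 note: growth inhibition of human NCI-H28 cells, read out as cell viability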
Description: SANGER: Inhibition of human NCI-H28 cell growth in a cell viability assay.

[40] = tested on: A2058; test: cells; conditions: Homo sapiens;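 note: reduction of A2058 cell growth, read out with a viability assay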
Description: SANGER: Inhibition of human A2058 cell growth in a cell viability assay.

[41] = tested on: BCPAP; test: cells; conditions: Homo sapiens;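 note: growth inhibition of BCPAP cells, read out in a cell viability assay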
Description: SANGER: Inhibition of human BCPAP cell growth in a cell viability assay.

[42] = tested on: HCC1569; test: cells; conditions: Homo sapiens;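 note: growth inhibition of human HCC1569 cells, read out with a cell viability assay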
Description: SANGER: Inhibition of human HCC1569 cell growth in a cell viability assay.

[43] = tested on: WM-115; test: cells; conditions: Homo sapiens
Description: SANGER: Inhibition of human WM-115 cell growth in a cell viability assay.

[44] = tested on: SCC-25; test: cells; conditions: Homo sapiens;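 note: growth inhibition of SCC-25 cells, measured with a cell viability assay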
Description: SANGER: Inhibition of human SCC-25 cell growth in a cell viability assay.

[45] = tested on: C-33-A; test: cells; conditions: Homo sapiens;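 note: cell viability assay measuring growth inhibition of C-33-A cells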
Description: SANGER: Inhibition of human C-33-A cell growth in a cell viability assay.

[46] = tested on: DoTc2-4510; test: cells; conditions: Homo sapiens
[47] = tested on: HuO9; test: cells; conditions: Homo sapiens;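 note: growth inhibition of HuO9 cells, read out with a cell viability assay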
Description: SANGER: Inhibition of human HuO9 cell growth in a cell viability assay.

[48] = tested on: NCI-H650; test: cells; conditions: Homo sapiens;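 note: growth inhibition of NCI-H650 cells, read out by a viability assay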
Description: SANGER: Inhibition of human NCI-H650 cell growth in a cell viability assay.

[49] = tested on: CAL-39; test: cells; conditions: Homo sapiens;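 note: cell viability assay measuring growth inhibition of CAL-39 cells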
Description: SANGER: Inhibition of human CAL-39 cell growth in a cell viability assay.

[50] = tested on: A-427; test: cells; conditions: Homo sapiens;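 note: growth inhibition of human A-427 cells, read out by a cell viability assay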
Description: SANGER: Inhibition of human A427 cell growth in a cell viability assay.

[51] = tested on: AGS; test: cells; conditions: Homo sapiens;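 note: growth inhibition of AGS cells, determined with a cell viability assay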
Description: SANGER: Inhibition of human AGS cell growth in a cell viability assay.

[52] = tested on: ACHN; test: cells; conditions: Homo sapiens;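 note: cell viability read-out used to gauge how strongly growth of human ACHN cells is suppressed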
Description: SANGER: Inhibition of human ACHN cell growth in a cell viability assay.

[53] = tested on: A2780; test: cells; conditions: Homo sapiens;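 note: growth inhibition of A2780 cells, read out with a cell viability assay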
Description: SANGER: Inhibition of human A2780 cell growth in a cell viability assay.

[54] = tested on: MC-IXC; test: cells; conditions: Homo sapiens;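 note: growth inhibition of MC-IXC cells, read out with a cell viability assay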
Description: SANGER: Inhibition of human MC-IXC cell growth in a cell viability assay.

[55] = tested on: SiHa; test: cells; conditions: Homo sapiens;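 note: Viability-based readout of growth inhibition in SiHa cells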
Description: SANGER: Inhibition of human SiHa cell growth in a cell viability assay.

[56] = tested on: U-118-MG; test: cells; conditions: Homo sapiens
Description: SANGER: Inhibition of human U-118-MG cell growth in a cell viability assay.

[57] = tested on: DBTRG-05MG; test: cells; conditions: Homo sapiens;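 note: cell viability assay measuring growth inhibition of human DBTRG-05MG cells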
Description: SANGER: Inhibition of human DBTRG-05MG cell growth in a cell viability assay.

[58] = tested on: BT-20; test: cells; conditions: Homo sapiens;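 note: cell viability assay measuring suppression of growth in human BT-20 cells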
Description: SANGER: Inhibition of human BT-20 cell growth in a cell viability assay.

[59] = tested on: UACC-893; test: cells; conditions: Homo sapiens
Description: SANGER: Inhibition of human UACC-893 cell growth in a cell viability assay.

[60] = tested on: HCC 2998; test: cells; conditions: Homo sapiens;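 note: growth inhibition of human HCC2998 cells, measured with a cell viability read-out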
Description: SANGER: Inhibition of human HCC2998 cell growth in a cell viability assay.

[61] = tested on: NCI-H2347; test: cells; conditions: Homo sapiens;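 note: growth inhibition of the cell line, read out with a cell viability assay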
Description: SANGER: Inhibition of human NCI-H2347 cell growth in a cell viability assay.

[62] = tested on: NCI-H1703; test: cells; conditions: Homo sapiens;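 note: growth inhibition of NCI-H1703 cells, read out via a cell viability assay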
Description: SANGER: Inhibition of human NCI-H1703 cell growth in a cell viability assay.

[63] = tested on: Ca9-22; test: cells; conditions: Homo sapiens;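 note: growth inhibition of Ca9-22 cells, read out with a cell viability assay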
Description: SANGER: Inhibition of human Ca9-22 cell growth in a cell viability assay.

[64] = tested on: BEN; test: cells; conditions: Homo sapiens
Description: SANGER: Inhibition of human BEN cell growth in a cell viability assay.

In the case of `Cc1nc(Nc2ncc(C(=O)Nc3c(C)cccc3Cl)s2)cc(N2CCN(CCO)CC2)n1` [DASATINIB], the pIC50 [1] was less than 5.89, the pIC50 [2] was less than 5.89 and the pIC50 [3] was less than 5.89. It also gave a pIC50 [4] of less than 5.89, a pIC50 [5] of 6.75 and a pIC50 [6] of less than 5.89. For the same molecule, the pIC50 [7] was less than 5.89, the pIC50 [8] was less than 5.89 and the pIC50 [9] was less than 5.89. The pIC50 [10] was less than 5.89, the pIC50 [11] was less than 5.89 and the pIC50 [12] was less than 5.89. For the same molecule, the pIC50 [13] was less than 5.89, the pIC50 [14] was less than 5.89 and the pIC50 [15] was 8.23. For the same molecule, the pIC50 [16] was 6.31, the pIC50 [17] was less than 5.89 and the pIC50 [18] was less than 5.89. The pIC50 [19] was less than 5.89, the pIC50 [20] was less than 5.89 and the pIC50 [21] was 6.54. It also gave a pIC50 [22] of less than 5.89.

With `C[C@]1(c2nc3c(C(N)=O)cccc3[nH]2)CCCN1` [VELIPARIB] the pIC50 [23] was less than 5.30, the pIC50 [24] was less than 5.30 and the pIC50 [25] was less than 5.30. It also gave a pIC50 [26] of less than 5.30, a pIC50 [27] of less than 5.30 and a pIC50 [28] of less than 5.30. It also gave a pIC50 [29] of less than 5.30, a pIC50 [30] of less than 5.30 and a pIC50 [31] of less than 5.30. The pIC50 [3] was less than 5.30, the pIC50 [32] was less than 5.30 and the pIC50 [33] was less than 5.30. It also gave a pIC50 [34] of less than 5.30, a pIC50 [35] of less than 5.30 and a pIC50 [36] of less than 5.30. It also gave a pIC50 [37] of less than 5.30, a pIC50 [38] of less than 5.30 and a pIC50 [39] of less than 5.30. The pIC50 [40] was less than 5.30, the pIC50 [41] was less than 5.30 and the pIC50 [42] was less than 5.30. The pIC50 [43] was less than 5.30, the pIC50 [44] was less than 5.30 and the pIC50 [45] was less than 5.30. For the same molecule, the pIC50 [46] was less than 5.30, the pIC50 [47] was less than 5.30 and the pIC50 [48] was less than 5.30. The pIC50 [49] was less than 5.30, the pIC50 [50] was less than 5.30 and the pIC50 [51] was less than 5.30. For the same molecule, the pIC50 [52] was less than 5.30, the pIC50 [53] was less than 5.30 and the pIC50 [54] was less than 5.30. The pIC50 [55] was less than 5.30, the pIC50 [56] was less than 5.30 and the pIC50 [57] was less than 5.30. The pIC50 [58] was less than 5.30, the pIC50 [59] was less than 5.30 and the pIC50 [60] was less than 5.30. For the same molecule, the pIC50 [61] was less than 5.30, the pIC50 [62] was less than 5.30 and the pIC50 [63] was less than 5.30. It also gave a pIC50 [64] of less than 5.30.

`Cc1n[nH]c2ccc(-c3cncc(OC[C@@H](N)Cc4c[nH]c5ccccc45)c3)cc12` [A-443654] gave a pIC50 [1] of 6.22, a pIC50 [2] of 6.98 and a pIC50 [3] of less than 5.99. It also gave a pIC50 [4] of less than 5.99, a pIC50 [5] of 6.20 and a pIC50 [6] of 6.65. For the same molecule, the pIC50 [7] was less than 5.99, the pIC50 [8] was 6.32 and the pIC50 [9] was less than 5.99. For the same molecule, the pIC50 [10] was 6.42, the pIC50 [11] was 6.79 and the pIC50 [12] was 6.72. The pIC50 [13] was 6.33, the pIC50 [14] was 6.25 and the pIC50 [15] was 7.23. It also gave a pIC50 [16] of less than 5.99, a pIC50 [17] of 6.29 and a pIC50 [18] of 6.74. The pIC50 [19] was less than 5.99, the pIC50 [20] was less than 5.99 and the pIC50 [21] was 7.02. It also gave a pIC50 [22] of 6.15.

Work on `CC[C@@]1(O)C(=O)OCc2c1cc1n(c2=O)Cc2cc3ccccc3nc2-1` [CAMPTOTHECIN] yielded a pIC50 [23] of 8.24, a pIC50 [24] of 7.93 and a pIC50 [26] of 9.74. It also gave a pIC50 [27] of 8.15, a pIC50 [28] of 8.05 and a pIC50 [29] of 7.58. For the same molecule, the pIC50 [30] was 7.23, the pIC50 [31] was 7.31 and the pIC50 [3] was 9.04. For the same molecule, the pIC50 [32] was 8.30, the pIC50 [33] was 7.89 and the pIC50 [34] was 8.22. It also gave a pIC50 [35] of less than 7.00, a pIC50 [36] of 7.42 and a pIC50 [37] of 7.60. The pIC50 [38] was 8.52, the pIC50 [39] was 7.41 and the pIC50 [40] was 8.44. The pIC50 [41] was 8.52, the pIC50 [44] was 7.25 and the pIC50 [45] was 8.19. It also gave a pIC50 [46] of 8.39, a pIC50 [47] of 8.54 and a pIC50 [48] of 7.26. For the same molecule, the pIC50 [49] was 7.72, the pIC50 [50] was 8.37 and the pIC50 [51] was 7.79. For the same molecule, the pIC50 [52] was 8.18, the pIC50 [53] was 8.54 and the pIC50 [54] was 9.29. It also gave a pIC50 [55] of 7.06, a pIC50 [56] of 7.72 and a pIC50 [57] of 7.39. The pIC50 [58] was 7.59, the pIC50 [62] was 8.19 and the pIC50 [63] was 8.66.
